Series [1] has as its target T1, Farnesyl protein transferase (FPT) (Homo sapiens, UniProt P49354+P49356).
T1 construct: partially purified from human placenta by ammonium sulphate fractionation; from tissue; host or cells: human placenta
Put plainly: In-vitro farnesyl protein transferase assay (farnesylation of Ki-ras with radiolabelled farnesyl pyrophosphate). Format: biochemical. As to conditions: "in the above test"; FPT partially purified from human placenta, substrate Kras (CVIM C-terminal sequence). Here is the method: The following stock solutions were used and the assays were conducted in 96 well plates: TRIS Buffer (500 mM TRIS, 50 mM MgCl2.6H2O, pH=8.0); Farnesyl pyrophosphate (6.4 mg/ml); Aprotinin (1.9 mg/ml); Ki-ras (0.5 mg/ml, stored at −80° C.); Acid ethanol (850 ml absolute ethanol+150 ml concentrated HCl).
Farnesyl protein transferase (FPT) was partially purified from human placenta by ammonium sulphate fractionation followed by a single Q-Sepharose™ (Pharmacia, Inc) anion exchange chromatography essentially as described by Ray and Lopez-Belmonte (Ray K P and Lopez-Belmonte J (1992) Biochemical Society Transactions 20 494-497). The substrate for FPT was Kras (CVIM C-terminal sequence). The cDNA for oncogenic val12 variant of human c-Ki-ras-2 4B was obtained from the plasmid pSW11-1 (ATCC). This was then subcloned into the polylinker of a suitable expression vector e.g. pIC147. The Kras was obtained after expression in the E. coli strain, BL21. […]
Assays were performed in 96 well plates as follows: 10 μl of test compound solution was added to each well. […] Precipitated protein was then collected onto glass fibre filter mats (B) using a Tomtec™ cell harvester and tritiated label was measured in a Wallac™1204 Betaplate scintillation counter. […]

SMILES strings stand for the structures.

A word on the melting point: it is the temperature of the solid-liquid transition. As to `COC(=O)[C@H](CCSC)NC(=O)c1ccc(NC(Cn2ccnc2)c2ccc(F)cc2)cc1-c1ccc(F)cc1` (stereo partly drawn) [Example 2, Methyl (2S)-2-{2-(4-fluorophenyl)-4-[1-(4-fluorophenyl)-2-(imidazol-1-yl)ethylamino]benzoylamino}-4methylsulfanylbutyrate], the melting point was in the range of 94 to 98 °C.
The term IC50 denotes the concentration that inhibits the measured activity by half. Turning to `CSCCC(NC(=O)c1ccc(NC(Cn2ccnc2)c2ccc(F)cc2)cc1-c1ccccc1)C(=O)O` [Example 6, (2S)-2-{2-Phenyl-4-[1-(4-fluorophenyl-2-imidazol-1-yl)ethylamino]benzoylamino}-4-methylsulfanylbutyric acid], the half-inhibitory concentration (IC50) in series [1] is roughly 2 nM.
`CSCC[C@H](NC(=O)c1cc(NC(Cn2ccnc2)c2ccc(F)cc2)ccc1CCc1ccc(F)cc1)C(=O)O` (stereo partly drawn) [Example 8, (2S)-2-{5-[1-(4-Fluorophenyl)-2-(imidazol-1-yl)ethylamino]-2-(4-fluorophenethyl)benzoylamino}-4-methylsulfanylbutyric acid]: the melting point was 115 to 120 °C.
`CSCC[C@H](NC(=O)c1cc(NC(Cn2ccnc2)c2ccc(F)cc2)ccc1Cc1ccc(F)cc1)C(=O)O` (stereo partly drawn) [Example 10, (2S)-2-{5-[1(4-Fluorophenyl)-2-(imidazol-1-yl)ethylamino]-2-(4-fluorobenzyl)benzoylamino}-4-methylsulfanylbutyric acid]: the melting point is 130 to 135 °C.
